molecular target: Human O-GlcNAcase (His-Tagged hOGA) (Homo sapiens (Human), UniProt O60502); assay: Human O-GlcNAcase enzyme inhibition assay; format: biochemical; conditions: OGA enzyme inhibition assay; activity range classes defined in μM
Sequence (O60502 whole entry): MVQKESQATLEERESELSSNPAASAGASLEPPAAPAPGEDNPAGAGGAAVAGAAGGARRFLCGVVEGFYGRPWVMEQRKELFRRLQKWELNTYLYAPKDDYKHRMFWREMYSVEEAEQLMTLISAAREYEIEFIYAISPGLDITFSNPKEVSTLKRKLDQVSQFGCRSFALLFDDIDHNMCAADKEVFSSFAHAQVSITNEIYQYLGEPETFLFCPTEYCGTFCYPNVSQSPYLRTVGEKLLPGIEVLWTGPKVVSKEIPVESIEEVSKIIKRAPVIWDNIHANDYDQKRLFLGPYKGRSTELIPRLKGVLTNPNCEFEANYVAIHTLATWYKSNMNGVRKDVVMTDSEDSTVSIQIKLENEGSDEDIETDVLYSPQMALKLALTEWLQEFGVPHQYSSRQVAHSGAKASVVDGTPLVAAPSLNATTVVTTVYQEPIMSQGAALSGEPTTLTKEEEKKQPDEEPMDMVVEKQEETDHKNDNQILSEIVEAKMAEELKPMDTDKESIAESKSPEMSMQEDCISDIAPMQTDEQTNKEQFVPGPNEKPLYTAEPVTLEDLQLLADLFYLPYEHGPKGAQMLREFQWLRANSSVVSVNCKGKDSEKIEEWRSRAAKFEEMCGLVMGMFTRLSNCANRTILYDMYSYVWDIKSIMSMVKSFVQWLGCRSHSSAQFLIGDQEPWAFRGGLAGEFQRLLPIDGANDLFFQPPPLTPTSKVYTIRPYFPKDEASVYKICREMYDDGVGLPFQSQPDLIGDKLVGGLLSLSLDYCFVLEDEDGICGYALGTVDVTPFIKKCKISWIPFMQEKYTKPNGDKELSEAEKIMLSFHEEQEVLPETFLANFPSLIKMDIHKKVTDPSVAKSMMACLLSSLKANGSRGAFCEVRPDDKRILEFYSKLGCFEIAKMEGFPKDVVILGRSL
Method: Then, 20 nM of His-Tagged hOGA and 10 μM of FL-GlcNAc (Fluorescein mono-beta-D-(2-deoxy-2-N-acetyl) glucopyranoside; Marker Gene Technologies Inc, M1485) were added to the 384-well plate for a final volume of 20 μl.

| IC50 [µM] | Compound |
| --- | --- |
| < 0.05 | Cc1ncc2ccc(N3CCN(C(C)c4ccc5c(c4)OCC5)CC3)cn12 (racemic) [Example 1, 6-(4-(1-(2,3-dihydrobenzofuran-6-yl)ethyl)piperazin-1-yl)-3-methylimidazo[1,5-a]pyridine] |
| < 0.05 | CC(c1ccc2c(c1)OCC2)N1CCN(c2ccc3c(c2)C(=O)NC3)CC1 (racemic) [Example 2, 6-(4-(1-(2,3-dihydrobenzofuran-6-yl)ethyl)piperazin-1-yl)isoindolin-1-one] |
| < 0.05 | CC(c1ccc2c(c1)OCC2)N1CCN(c2cc3c(cn2)NC(=O)CO3)CC1 (racemic) [Example 3, 7-(4-(1-(2,3-dihydrobenzofuran-6-yl)ethyl)piperazin-1-yl)-2H-pyrido[4,3-b][1,4]oxazin-3(4H)-one] |
| 0.05 to 0.2 | CC(c1ccc2nccnc2c1)N1CCN(c2ccc3c(c2)C(=O)NC3)CC1 (racemic) [Example 4, 6-(4-(1-(quinoxalin-6-yl)ethyl)piperazin-1-yl)isoindolin-1-one] |
| < 0.05 | CC(c1ccc2c(c1)OCC2)N1CCN(c2nc3c(s2)C(=O)NCC3)CC1 (racemic) [Example 12, 2-(4-(1-(2,3-dihydrobenzofuran-6-yl)ethyl)piperazin-1-yl)-6,7-dihydrothiazolo[5,4-c]pyridin-4(5H)-one] |

| Compound | IC50 [µM] |
| --- | --- |
| C[C@H](c1ccc2c(c1)OCC2)N1CCN(c2nc3c(s2)CNCC3)CC1 (single isomer, unassigned) [Example 18] | 1 to 10 |

Reference: patent US11612599B2, “Glycosidase inhibitors” (Asceneuron SA, priority 2016, dated 2023)
